Laboratory results reported in paper PMC10975434 (Pharmaceutics, 2024).
Changes are numbered by the printed parent chain. Values joined by “and” are separate entries in the source; they are usually repeats but may differ in a detail not shown here. Equal values may be shown once. Read-outs that look alike come from different tables or passages of the source.

Experiments:
[1] = target: T1, UGT2B7 (Homo sapiens, UniProt P16662, Y268H); test: Inhibition screening of morphine glucuronidation in rUGT2B7-overexpressing HEK293 cell microsomes; details: rUGT-overexpressing microsomes and HLM
T1 sequence (P16662 24-529 Y268H): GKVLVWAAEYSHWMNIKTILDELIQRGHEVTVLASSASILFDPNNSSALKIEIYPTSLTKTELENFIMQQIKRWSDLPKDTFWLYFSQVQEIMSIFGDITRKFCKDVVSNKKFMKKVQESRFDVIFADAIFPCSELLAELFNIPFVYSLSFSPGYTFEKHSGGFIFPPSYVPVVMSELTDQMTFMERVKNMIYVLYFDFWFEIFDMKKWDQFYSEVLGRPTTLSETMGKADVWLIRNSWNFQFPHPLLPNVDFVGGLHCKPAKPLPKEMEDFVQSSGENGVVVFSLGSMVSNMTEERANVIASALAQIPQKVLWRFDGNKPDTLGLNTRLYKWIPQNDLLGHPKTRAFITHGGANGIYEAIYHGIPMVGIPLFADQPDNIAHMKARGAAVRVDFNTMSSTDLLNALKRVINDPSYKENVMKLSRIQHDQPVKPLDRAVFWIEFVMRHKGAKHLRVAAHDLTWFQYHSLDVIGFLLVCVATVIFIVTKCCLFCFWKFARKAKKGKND

[2] = target: T2, UGT2B7 (Homo sapiens, UniProt P16662)
T2 sequence (P16662 24-529): T1 sequence (P16662 24-529 Y268H) with H245Y

[3] = target: T2, UGT2B7; test: IC50 determination and calculated Ki, morphine glucuronidation in HLM
[4] = target: T1, UGT2B7; test: IC50 determination, morphine glucuronidation in rUGT2B7-overexpressing HEK293 cell microsomes
[5] = target: T2, UGT2B7; test: Inhibition screening of morphine glucuronidation in pooled human liver microsomes (HLM); details: 100 µM cannabinoid
[6] = Estimated unbound maximum hepatic inlet concentration used for the static model
Description: (8) [I]h=fu,p×Cmax+Fa ×Fg×Ka×Dose/Qh ×Rb
For the static mechanistic modeling, hepatic blood flow (Qh) and enterocyte blood flow (Qen) were set to 1500 mL/min and 300 mL/min, respectively, and the blood-to-plasma concentration ratio (RB) was set to 0.4 [55].
C௠௔௫ ,௛௘௣௔௧௜௖ ௜௡௟௘௧ ,௨ ൌ f௨,௣ ൈ ቀC௠௔௫ ൅ ிೌ ൈ ி೒ ൈ ௄ೌ ൈ஽௢௦௘ொ೓ ൈ ோ್ቁ, where fu,p (unbound fraction in plasma) wa s set

[7] = target: T1, UGT2B7
[8] = cited from earlier work; for Cmax,u: after consumption; for ka (first-order absorption rate constant): ref Cox et al., 2019 [45]
[9] = target: T2, UGT2B7; test: in vitro; details: human liver microsomes, probe morphine […] (morphine-6-glucuronide formation)
[10] = target: T1, UGT2B7; test: in vitro
[11] = cited from earlier work
[12] = test system: UGT2B7; parameters: method as in PMID 9715839; details: coadministration of zidovudine (AZT) and methadone; cited from earlier work
[13] = read-out: Calculated Ki, Morphine-3-Glucuronide, Ki=IC50/2 assuming competitive inhibition
[14] = read-out: Calculated Ki, Morphine-6-Glucuronide, Ki=IC50/2 assuming competitive inhibition
[15] = read-out: Calculated Ki,u, Morphine-3-Glucuronide, Ki corrected with fu,inc
[16] = read-out: Calculated Ki,u, Morphine-6-Glucuronide, Ki corrected with fu,inc
[17] = read-out: IC50,u, Morphine-3-Glucuronide formation, corrected for non-specific binding with fu,inc (11-OH-THC fu,inc as surrogate for 11-COOH-THC and 7-OH-CBD)
[18] = read-out: IC50,u, Morphine-6-Glucuronide formation, corrected for non-specific binding with fu,inc (11-OH-THC fu,inc as surrogate for 11-COOH-THC and 7-OH-CBD)
[19] = read-out: Cmax,hepatic inlet,u, THC dose 20 mg, Oral, estimated from Cmax of Bansal et al., 2022 [56]
[20] = read-out: Cmax,hepatic inlet,u, THC dose 25 mg, Inhalation, estimated from Cmax of Bansal et al., 2022 [56]
[21] = read-out: Cmax,hepatic inlet,u, THC dose 70 mg, Inhalation, estimated from Cmax of Bansal et al., 2022 [56]
[22] = read-out: Cmax,hepatic inlet,u, THC dose 100 mg, Inhalation, estimated from Cmax of Bansal et al., 2022 [56]
[23] = read-out: Cmax,hepatic inlet,u, THC dose 130 mg, Oral, estimated from Cmax of Bansal et al., 2022 [56]
[24] = read-out: Cmax,hepatic inlet,u, THC dose 160 mg, Oral, estimated from Cmax of Bansal et al., 2022 [56]
[25] = microsomes of HEK293 cells overexpressing recombinant UGT2B7, probe morphine […] (morphine-3-glucuronide formation)
[26] = microsomes of HEK293 cells overexpressing recombinant UGT2B7, probe morphine […] (morphine-6-glucuronide formation)

Molecule	inhibition of UGT2B7-mediated morphine metabolism (overall, in words) [1]	IC50 [2]	Ki [3, 13] [µM]	Ki [3, 14] [µM]	Ki [3, 15] [µM]	Ki [3, 16] [µM]	IC50 [3, 17] [nM]	IC50 [3, 18] [nM]	IC50 [4, 17] [nM]	IC50 [4, 18] [nM]	inhibition of M3G and M6G formation in HLM (in words) [5]	Cmax [6, 19] [nM]	Cmax [6, 20] [nM]	Cmax [6, 21] [nM]	Cmax [6, 22] [nM]	Cmax [6, 23] [nM]	Cmax [6, 24] [nM]	IC50 [7]	also measured
CCCCCc1cc(O)c2c(c1)OC(C)(C)[C@@H]1CCC(C(=O)O)=C[C@@H]21 [11-COOH-THC, 11-nor-9-carboxy-Δ^9-tetrahydrocannabinol]	more moderate inhibition	184 µM and 104 µM	91.6 ± 18.5	52.1 ± 8.16	8.61 ± 1.74	4.89 ± 0.77	17000 ± 3500	9800 ± 1500	3700 ± 1200	4300 ± 1200	weak to moderate inhibition	190	70	180	260	1220	1500	47 µM and 55 µM	
C=C(C)[C@@H]1CCC(C)=C[C@H]1c1c(O)cc(CCCCC)cc1O [CBD, cannabidiol, reference compound]	strong inhibition										significant inhibition								Ki ([3]; human, human liver microsomes, probe morphine […] (morphine-3-glucuronide formation), Calculated Ki, Morphine-3-Glucuronide, Ki=IC50/2 assuming competitive inhibition): 4.11 ± 2.24 µM; IC50 ([3]; human, human liver microsomes, probe morphine […] (morphine-3-glucuronide formation), IC50,u, Morphine-3-Glucuronide formation, corrected for non-specific binding with fu,inc (11-OH-THC fu,inc as surrogate for 11-COOH-THC and 7-OH-CBD)): 420 ± 230 nM; Ki ([3]; human, human liver microsomes, probe morphine […] (morphine-6-glucuronide formation), Calculated Ki, Morphine-6-Glucuronide, Ki=IC50/2 assuming competitive inhibition): 3.16 ± 1.32 µM; Ki ([3]; human, human liver microsomes, probe morphine […] (morphine-6-glucuronide formation), Calculated Ki,u, Morphine-6-Glucuronide, Ki corrected with fu,inc): 0.16 ± 0.07 µM; IC50 ([3]; human, human liver microsomes, probe morphine […] (morphine-6-glucuronide formation), IC50,u, Morphine-6-Glucuronide formation, corrected for non-specific binding with fu,inc (11-OH-THC fu,inc as surrogate for 11-COOH-THC and 7-OH-CBD)): 320 ± 130 nM; Cmax,u [8]: 0.13 µM; ka (first-order absorption rate constant) ([8]; value set for the static model): 0.02; Cmax ([6]; human, hepatic inlet (unbound), inhaled or intranasal, 19 mg): 350 nM; Cmax ([6]; human, hepatic inlet (unbound), po, 70 mg): 90 nM; Cmax ([6]; human, hepatic inlet (unbound), po, 700 mg): 890 nM; Cmax ([6]; human, hepatic inlet (unbound), po, 2000 mg): 2540 nM; IC50 [9]: 6.3 ± 2.6 µM; inhibition at 100 µM [10, 25]: 99%; inhibition at 100 µM [10, 26]: 98%
CCCCCc1cc(O)c2c(c1)OC(C)(C)[C@@H]1CCC(C)=C[C@@H]21 [THC, Δ^9-tetrahydrocannabinol, reference compound]	strong inhibition	24 µM and 15 µM	12.2 ± 2.77	7.69 ± 1.63		0.37 ± 0.08	1200 ± 270	740 ± 160	850 ± 340	340 ± 70	significant inhibition	30	250	690	990	200	240		Cmax,u [8]: 0.02 µM; ka (first-order absorption rate constant) ([8]; value set for the static model): 0.02; BP (blood to plasma ratio) ([8]; value set for the static model, ref Schwilke et al., 2009 [55]): 0.4; unbound fraction (fu,inc) ([11]; HLM): 0.048
C=C(C)[C@@H]1CCC(CO)=C[C@H]1c1c(O)cc(CCCCC)cc1O [7-OH-CBD, 7-hydroxy-cannabidiol]	strong inhibition		8.59 ± 3.05	3.99 ± 2.54	0.81 ± 0.29	0.38 ± 0.12	1600 ± 570	750 ± 240	3000 ± 2100	3000 ± 700	significant inhibition							38 µM and 39 µM	Cmax ([6]; read-out: Cmax,hepatic inlet,u, CBD dose 70 mg, Oral, estimated from Cmax of Bansal et al., 2022 [56]): 30 nM; Cmax ([6]; read-out: Cmax,hepatic inlet,u, CBD dose 700 mg, Oral, estimated from Cmax of Bansal et al., 2022 [56]): 340 nM; Cmax ([6]; read-out: Cmax,hepatic inlet,u, CBD dose 2000 mg, Oral, estimated from Cmax of Bansal et al., 2022 [56]): 980 nM
Cc1cn([C@H]2C[C@H](N=[N+]=[N-])[C@@H](CO)O2)c(=O)[nH]c1=O [zidovudine]																			increase in zidovudine exposure [12]: 1.4 fold
CCCCCc1cc(O)c2c(c1)OC(C)(C)c1ccc(C)cc1-2 [CBN, cannabinol]	no significant inhibitory activity										did not exhibit appreciable inhibition								inhibition at 100 µM [10, 25]: 10%; inhibition at 100 µM [10, 26]: 33%
11-hydroxy-Δ^9-tetrahydrocannabinol [11-OH-THC]	strong inhibition	18 µM and 13 µM	8.82 ± 8.42	6.61 ± 5.02	0.82 ± 0.79	0.62 ± 0.47	1700 ± 1600	1200 ± 950	960 ± 270	960 ± 280	significant inhibition	20	10	30	50	100	120	12 ± 3.5 µM	unbound fraction (fu,inc) ([11]; HLM): 0.094; unbound fraction (fu,inc) ([11]; rUGT-overexpressing microsomes): 0.078
C=C(C)[C@@H]1CCC(C(=O)O)=C[C@H]1c1c(O)cc(CCCCC)cc1O [7-COOH-CBD, 7-carboxy-cannabidiol]											weak to moderate inhibition								
